Data taken from US20100160356A1, “NOVEL CYCLOBUTYL COMPOUNDS AS KINASE INHIBITORS” (priority 2006, published 2010).
Values after ≈ are worked out from the molar mass of the structure shown.

Key:
[1] = Solubility in phosphate buffer by the shake flask method; assay type: physicochemical; conditions: 37 °C, pH 7, aqueous buffer, thermodynamic from solid, pH 7.0, 37° C., 24 h shake flask
Description: The procedure described in Glomme et al. (J. Pharm. Sci. 94(1): 1-16, 2005) is followed. The concentration determination is carried out by HPLC with UV detection against a standard solution.
Buffer: 3.954 g of sodium dihydrogenphosphate monohydrate 6.024 g of sodium chloride +950 ml of ultrapure water. Setting of pH 7.0 using 0.1 M NaOH or 0.1 M HCl.
The samples were shaken at 37° C. and 450 rpm for 24 h. After about 7 h, the pH of the samples was checked and adjusted if necessary. It was checked whether the sample was still present in excess. Just before the end of the 24 h shaking time, the samples were again checked for pH and a precipitate.
• Ultrapure water plant: MilliQ gradient, Millipore, unit: F3PN37462D • Shaker: TiMix control, Bühler • Incubation hood: TH 15, Bühler • pH meter: 766 Calimatic Knick instrument: pH 1 • pH electrode: InLab 423 Mettler • HPLC: column: LiChroCart 125-4 LiChrospher 100 RP-18 • flow rate: 1.000 ml/min • eluents: • eluent A: 2 ml of diethylamine, for synthesis+1000 ml of methanol, LiChrosolv • eluent B: 5 g of ammonium acetate, for analysis+5 ml of methanol, LiChrosolv+995 ml of ultrapure water

[2] = target: IGF1R (Homo sapiens, UniProt P08069); assay: Inhibition of IGF1R (flashplate assay); assay type: biochemical; conditions: flashplate method
Description: (§1) The test plates used are 96-well flashplate microtitre plates from Perkin Elmer (USA). The components of the kinase reaction are pipetted into the assay plate. The IGF1R kinase is incubated for 1 hr. with radioactively labelled ^33P-ATP in the presence and absence of test substances in a total volume of 100 μl at room temperature together with biotinylated poly(Glu, Tyr)4:1. The reaction is terminated using 25 μl of a 200 mM EDTA solution. After incubation for a further 30 min at room temperature, the supernatants are removed by suction, and the wells are washed three times with 100 μl of 0.9% NaCl solution each time. The radioactivity is measured using a Topcount scintillation counter (PerkinElmer, USA). IC50 values are calculated using the RS1 computer program.

[3] = target: T1, FAK (focal adhesion kinase) (Homo sapiens, UniProt Q05397); assay: Inhibition of FAK (ELISA assay), FAK phosphorylation in cells; assay type: cell-based; conditions: human cells with FAK amplification
T1 construct: endogenous in cells; host or cells: Calu-6 or HT-29
Description: Activated FAK promotes the invasive growth of tumour cells and inhibits anoikis.
The amount of phosphorylated FAK is determined by a specific capture ELISA or an analogous LUMINEX assay. FAK from cell lysates is bound to a 96-well ELISA plate or LUMINEX beads by means of a specific antibody (“capturing”), and the tyrosine phosphorylation is detected using a biotin-labelled anti-phosphotyrosine antibody and a streptavidin-peroxidase conjugate by a chemiluminescence method or by means of a fluorescence-labelled anti-phosphotyrosine antibody.
For determination of the activity of kinase inhibitors, cells are pretreated with increasing concentrations of these compounds for 45 min, and the FAK phosphorylation is then determined. As internal control, a concentration series of a reference inhibitor is measured.

[4] = target: VEGF-2 (Homo sapiens, UniProt P35968); assay: Inhibition of VEGF-2 (flashplate assay); assay type: biochemical; conditions: flashplate method
Description: as §1, with “are 384-well” for “are 96-well”, “The VEGF-2” for “The IGF1R”, “for 3” for “for 1”

[5] = target: TIE2 (Homo sapiens, UniProt Q02763); assay: Inhibition of TIE2 (flashplate assay); assay type: biochemical; conditions: flashplate method
Description: B4: inhibition of T1E2 (Flashplate Assay)
as §1, with “are 384-well” for “are 96-well”, “The TIE2” for “The IGF1R”, “for 3” for “for 1”

[6] = target: PDGFRβ (Homo sapiens, UniProt P09619); assay: Inhibition of PDGFRβ (flashplate assay); assay type: biochemical; conditions: flashplate method
Description: as §1, with “The PDGFRβ” for “The IGF1R”, “for 3” for “for 1”, “temperature (here autophosphorylation of the kinase).” for “temperature together with biotinylated poly(Glu, Tyr)4:1.”, “using 150” for “using 25”, “a 60” for “a 200”, “with 200” for “with 100”

[7] = target: T2, TGFβR1 (Homo sapiens, UniProt P36897); assay: Inhibition of TGFβR1 (flashplate assay); assay type: biochemical; conditions: flashplate method
T2 sequence (P36897 34-503): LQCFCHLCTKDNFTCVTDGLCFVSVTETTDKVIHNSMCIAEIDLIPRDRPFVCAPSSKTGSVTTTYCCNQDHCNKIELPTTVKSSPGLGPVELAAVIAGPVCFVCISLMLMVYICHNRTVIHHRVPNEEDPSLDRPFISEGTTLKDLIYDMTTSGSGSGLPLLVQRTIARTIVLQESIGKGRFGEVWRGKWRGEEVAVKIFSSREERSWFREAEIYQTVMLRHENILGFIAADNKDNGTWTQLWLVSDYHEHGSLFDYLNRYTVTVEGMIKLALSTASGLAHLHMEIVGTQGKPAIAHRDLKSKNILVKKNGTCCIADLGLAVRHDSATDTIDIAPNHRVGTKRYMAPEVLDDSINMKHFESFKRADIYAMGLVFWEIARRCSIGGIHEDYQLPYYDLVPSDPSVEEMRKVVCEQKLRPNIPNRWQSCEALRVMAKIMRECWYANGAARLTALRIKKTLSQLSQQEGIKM
Description: The test is carried out as described in Example B1b for IGF1R. A biotinylated is added to the TGFβR1 kinase.
The kinase assay is carried out as a 384-well flashplate assay.
The components of the kinase reaction are pipetted into the assay plate. The TGFβR1 kinase is incubated for 45 min with radioactively labelled ^33P-ATP in the presence and absence of test substances together with biotinylated substrate in a total volume of 35 μl. The reaction is terminated using 25 μl of 200 mM EDTA solution, removed by suction after 30 min at room temperature, and the wells are washed with three times with 100 μl of 0.9% NaCl solution each time. The radioactivity is measured using a Topcount scintillation counter (PerkinElmer, USA). IC50 values are calculated using the RS1 computer program.

[8] = target: T3, IGF1 receptor (IGF1R) (Homo sapiens, UniProt P08069); assay: Inhibition of IGF1R (ELISA assay), IGF1-stimulated autophosphorylation in cells; assay type: cell-based; conditions: human tumour cells stimulated with IGF1, read-out: IC50 IGF (ELISA)
T3 construct: endogenous in cells; host or cells: MCF-7 or Calu-6
Description: The stimulation induces an autophosphorylation of tyrosine residues in the cytoplasmatic IGF1R domain, which triggers signal transduction cascades, which result in inhibition of apoptosis and proliferation of the cells.
The amount of phosphorylated IGF1R is determined by a receptor-specific capture ELISA or an analogous LUMINEX assay. The IGF1R from cell lysates is bound to a 96-well ELISA plate or LUMINEX beads by means of a specific antibody (“capturing”), and the tyrosine phosphorylation is detected using a biotin-labelled anti-phosphotyrosine antibody and a streptavidin-peroxidase conjugate by a chemiluminescence method or by means of a fluorescence-labelled anti-phosphotyrosine antibody.
For determination of the activity of kinase inhibitors, cells are pretreated with increasing concentrations of these compounds for 45 min and subsequently stimulated using IGF1 for 5 min. As internal control, the biological activity of the ligand IGF1 is checked, and a concentration series of an IGF1R reference inhibitor is measured.

T1 sequence (Q05397 whole entry): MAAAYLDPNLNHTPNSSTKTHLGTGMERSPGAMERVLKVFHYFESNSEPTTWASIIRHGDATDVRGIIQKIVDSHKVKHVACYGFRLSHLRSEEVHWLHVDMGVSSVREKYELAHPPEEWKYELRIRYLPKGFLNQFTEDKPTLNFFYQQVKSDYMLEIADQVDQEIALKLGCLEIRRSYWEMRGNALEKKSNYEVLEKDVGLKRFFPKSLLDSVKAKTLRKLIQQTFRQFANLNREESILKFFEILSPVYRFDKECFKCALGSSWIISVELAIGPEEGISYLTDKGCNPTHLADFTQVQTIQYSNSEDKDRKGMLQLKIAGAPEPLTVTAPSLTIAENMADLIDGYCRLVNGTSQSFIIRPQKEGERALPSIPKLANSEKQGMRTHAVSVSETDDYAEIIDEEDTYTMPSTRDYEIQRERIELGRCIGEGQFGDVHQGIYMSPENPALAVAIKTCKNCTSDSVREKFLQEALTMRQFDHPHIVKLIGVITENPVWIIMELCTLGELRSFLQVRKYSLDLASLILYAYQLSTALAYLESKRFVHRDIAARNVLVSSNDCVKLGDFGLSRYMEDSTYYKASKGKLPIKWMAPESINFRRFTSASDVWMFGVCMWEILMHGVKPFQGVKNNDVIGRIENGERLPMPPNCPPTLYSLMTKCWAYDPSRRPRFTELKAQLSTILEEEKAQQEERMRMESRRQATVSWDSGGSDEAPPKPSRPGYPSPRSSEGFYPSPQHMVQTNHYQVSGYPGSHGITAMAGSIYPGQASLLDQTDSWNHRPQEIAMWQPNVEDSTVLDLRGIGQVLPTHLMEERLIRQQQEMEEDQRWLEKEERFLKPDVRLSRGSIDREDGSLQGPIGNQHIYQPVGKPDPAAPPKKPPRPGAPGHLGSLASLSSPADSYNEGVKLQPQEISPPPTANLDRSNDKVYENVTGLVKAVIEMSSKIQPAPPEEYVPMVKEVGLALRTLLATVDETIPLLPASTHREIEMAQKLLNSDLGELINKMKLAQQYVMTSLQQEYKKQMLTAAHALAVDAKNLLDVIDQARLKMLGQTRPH
Sequence of PDGFRβ (P09619 33-1106, species assumed): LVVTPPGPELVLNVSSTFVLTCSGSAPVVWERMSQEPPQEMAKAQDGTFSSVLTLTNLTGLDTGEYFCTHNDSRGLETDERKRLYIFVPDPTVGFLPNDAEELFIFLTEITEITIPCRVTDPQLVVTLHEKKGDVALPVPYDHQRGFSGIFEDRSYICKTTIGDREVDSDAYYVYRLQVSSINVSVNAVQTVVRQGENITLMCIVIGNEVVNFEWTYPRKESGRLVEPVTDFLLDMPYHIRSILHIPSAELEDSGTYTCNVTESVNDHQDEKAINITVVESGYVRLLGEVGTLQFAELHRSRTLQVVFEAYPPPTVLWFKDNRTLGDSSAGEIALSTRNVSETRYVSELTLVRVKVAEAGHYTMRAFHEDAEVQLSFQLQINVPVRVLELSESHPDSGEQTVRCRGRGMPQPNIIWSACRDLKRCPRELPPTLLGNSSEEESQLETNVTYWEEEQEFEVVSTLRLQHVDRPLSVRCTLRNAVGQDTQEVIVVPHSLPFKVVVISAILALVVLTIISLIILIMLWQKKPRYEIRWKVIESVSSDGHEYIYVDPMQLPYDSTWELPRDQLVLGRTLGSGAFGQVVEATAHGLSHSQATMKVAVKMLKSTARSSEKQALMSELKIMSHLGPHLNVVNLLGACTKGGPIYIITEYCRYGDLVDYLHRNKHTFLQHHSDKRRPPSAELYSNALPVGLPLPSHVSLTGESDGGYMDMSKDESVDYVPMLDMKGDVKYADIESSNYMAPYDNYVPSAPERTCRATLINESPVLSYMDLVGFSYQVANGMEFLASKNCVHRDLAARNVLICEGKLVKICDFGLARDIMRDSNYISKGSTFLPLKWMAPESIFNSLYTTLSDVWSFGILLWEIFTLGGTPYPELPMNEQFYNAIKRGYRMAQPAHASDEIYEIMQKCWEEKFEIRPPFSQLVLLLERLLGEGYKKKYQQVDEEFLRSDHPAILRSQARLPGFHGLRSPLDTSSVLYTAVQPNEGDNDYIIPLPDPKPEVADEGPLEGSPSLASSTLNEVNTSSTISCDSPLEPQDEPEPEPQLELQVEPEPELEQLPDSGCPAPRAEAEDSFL
Sequence of TIE2 (Q02763 23-1124, species assumed): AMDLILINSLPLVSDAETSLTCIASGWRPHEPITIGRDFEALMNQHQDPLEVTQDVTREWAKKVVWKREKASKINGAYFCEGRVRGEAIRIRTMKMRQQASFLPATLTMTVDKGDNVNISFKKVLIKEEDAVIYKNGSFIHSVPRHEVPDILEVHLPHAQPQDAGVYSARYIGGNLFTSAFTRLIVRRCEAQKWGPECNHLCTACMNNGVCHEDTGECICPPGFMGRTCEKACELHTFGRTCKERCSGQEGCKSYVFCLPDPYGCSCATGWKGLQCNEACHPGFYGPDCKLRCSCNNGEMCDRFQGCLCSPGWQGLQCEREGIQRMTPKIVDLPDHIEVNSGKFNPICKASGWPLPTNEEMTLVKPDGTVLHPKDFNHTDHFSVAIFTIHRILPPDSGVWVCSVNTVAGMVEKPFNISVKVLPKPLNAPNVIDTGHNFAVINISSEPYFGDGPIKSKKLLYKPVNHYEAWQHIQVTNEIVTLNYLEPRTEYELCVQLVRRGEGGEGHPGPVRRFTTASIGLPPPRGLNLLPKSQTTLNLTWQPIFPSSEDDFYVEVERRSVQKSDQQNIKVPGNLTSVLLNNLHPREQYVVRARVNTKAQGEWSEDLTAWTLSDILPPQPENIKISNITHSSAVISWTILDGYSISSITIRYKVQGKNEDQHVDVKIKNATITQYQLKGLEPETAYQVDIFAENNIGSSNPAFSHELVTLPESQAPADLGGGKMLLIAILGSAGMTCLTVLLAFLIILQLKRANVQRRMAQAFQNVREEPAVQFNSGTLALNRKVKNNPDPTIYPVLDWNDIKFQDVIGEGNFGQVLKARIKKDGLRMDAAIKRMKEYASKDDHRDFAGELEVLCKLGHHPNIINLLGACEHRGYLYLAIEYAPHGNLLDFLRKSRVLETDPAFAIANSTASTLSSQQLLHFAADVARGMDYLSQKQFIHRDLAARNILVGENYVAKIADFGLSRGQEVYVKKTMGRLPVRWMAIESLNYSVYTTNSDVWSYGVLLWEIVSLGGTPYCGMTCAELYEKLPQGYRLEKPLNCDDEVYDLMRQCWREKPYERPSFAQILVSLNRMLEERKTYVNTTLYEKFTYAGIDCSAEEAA
Sequence of VEGF-2 (P35968 20-1356): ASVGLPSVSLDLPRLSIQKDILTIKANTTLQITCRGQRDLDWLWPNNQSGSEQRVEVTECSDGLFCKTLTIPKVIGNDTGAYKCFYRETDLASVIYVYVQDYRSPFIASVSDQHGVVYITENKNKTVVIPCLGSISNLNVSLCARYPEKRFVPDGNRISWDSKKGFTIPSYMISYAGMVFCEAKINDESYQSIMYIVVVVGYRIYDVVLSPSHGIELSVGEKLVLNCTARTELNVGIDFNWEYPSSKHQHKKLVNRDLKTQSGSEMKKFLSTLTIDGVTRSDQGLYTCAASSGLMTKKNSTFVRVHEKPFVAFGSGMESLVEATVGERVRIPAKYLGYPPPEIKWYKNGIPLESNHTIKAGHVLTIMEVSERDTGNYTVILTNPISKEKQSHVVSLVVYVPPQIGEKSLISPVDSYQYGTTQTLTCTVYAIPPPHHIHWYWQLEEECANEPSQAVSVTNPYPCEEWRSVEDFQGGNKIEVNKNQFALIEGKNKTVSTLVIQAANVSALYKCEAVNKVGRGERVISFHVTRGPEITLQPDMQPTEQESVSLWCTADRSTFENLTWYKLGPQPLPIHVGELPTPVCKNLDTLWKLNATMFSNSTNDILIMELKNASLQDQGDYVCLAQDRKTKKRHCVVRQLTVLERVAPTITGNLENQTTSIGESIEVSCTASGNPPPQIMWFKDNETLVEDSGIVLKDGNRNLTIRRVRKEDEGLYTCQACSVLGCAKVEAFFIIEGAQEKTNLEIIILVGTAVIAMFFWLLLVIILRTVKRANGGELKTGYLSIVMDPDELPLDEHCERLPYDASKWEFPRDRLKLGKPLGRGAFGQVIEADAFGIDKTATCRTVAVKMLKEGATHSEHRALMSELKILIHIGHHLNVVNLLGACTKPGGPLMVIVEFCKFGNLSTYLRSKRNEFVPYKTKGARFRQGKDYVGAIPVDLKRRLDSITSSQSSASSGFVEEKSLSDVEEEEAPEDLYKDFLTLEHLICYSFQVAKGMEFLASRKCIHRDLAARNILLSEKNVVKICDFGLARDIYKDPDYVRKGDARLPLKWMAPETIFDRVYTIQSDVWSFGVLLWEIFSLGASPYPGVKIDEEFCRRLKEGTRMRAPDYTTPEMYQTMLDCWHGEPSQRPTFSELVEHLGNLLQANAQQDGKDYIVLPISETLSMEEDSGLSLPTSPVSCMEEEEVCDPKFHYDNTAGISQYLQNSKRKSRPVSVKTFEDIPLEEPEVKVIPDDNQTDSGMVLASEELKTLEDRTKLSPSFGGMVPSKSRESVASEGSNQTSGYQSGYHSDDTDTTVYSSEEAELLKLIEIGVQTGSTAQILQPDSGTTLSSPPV

SMILES | solubility at 24 h [1] [µg/mL] | IC50 [2] [nM] | IC50 [3] [nM] | IC50 [4] [nM] | IC50 [5] [nM] | IC50 [6] [nM] | IC50 [7] [nM] | melting point | IC50 [8] [nM]
Nc1ncnc2c1c(-c1cccc(OCc3ccccc3)c1)cn2C1CC(CN2C(=O)c3ccccc3C2=O)C1 (stereo not drawn) [2-{3-[4-Amino-5-(3-benzyloxyphenyl)pyrrolo[2,3-d]pyrimidin-7-yl]cyclobutylmethyl}isoindole-1,3-dione, reference compound] | < 1 |  |  |  |  |  |  |  | 
Nc1ncnc2c1c(-c1cccc(OCc3ccccc3)c1)cn2C1CC(CN2CCCC2)C1 (stereo not drawn) [5-(3-Benzyloxyphenyl)-7-(3-pyrrolidin-1-ylmethyl-cyclobutyl)-7H-pyrrolo[2,3-d]pyrimidin-4-ylamine, reference compound] | 53 (≈ 117 µM) |  |  |  |  |  |  |  | 
NCC1CC(n2cc(-c3cccc(OCc4ccccc4)c3)c3c(N)ncnc32)C1 (stereo not drawn) [7-(3-Aminomethylcyclobutyl)-5-(3-benzyloxyphenyl)-7H-pyrrolo[2,3-d]pyrimidin-4-ylamine, reference compound] | 233 (≈ 583 µM) |  |  |  |  |  |  |  | 
NCC1CC(n2cc(-c3ccccc3)c3c(N)ncnc32)C1 (stereo not drawn) [Compound 4] |  | 7400 | 1100 | 1100 | 7400 | 920 | 2800 | 84 to 86 °C | 
NCC1CC(n2cc(-c3ccc(N)cc3)c3c(N)ncnc32)C1 (stereo not drawn) [Compound 5] | 1090 (≈ 3530 µM) | 2300 |  | 630 |  | 630 | 2900 | 319.5 to 321 °C (dec.) | 
NCC1CC(n2cc(-c3cccc(F)c3)c3c(N)ncnc32)C1 (stereo not drawn) [Compound 6, 7-(3-aminomethylcyclobutyl)-5-(3-fluorophenyl)-7H-pyrrolo[2,3-d]pyrimidin-4-ylamine] |  | 7500 | 1400 | 1800 |  | 700 | 1700 | 101 to 102 °C | 
CCCCOc1cccc(-c2cn(C3CC(CN)C3)c3ncnc(N)c23)c1 (stereo not drawn) [Compound 7, 7-(3-Aminomethylcyclobutyl)-5-(3-butoxyphenyl)-7H-pyrrolo[2,3-d]pyrimidin-4-ylamine] | 1120 (≈ 3070 µM) | 1200 |  | 9100 | 910 |  |  |  | 
CS(=O)(=O)c1cccc(-c2cn(C3CC(CN)C3)c3ncnc(N)c23)c1 (stereo not drawn) [Compound 11, 7-(3-Aminomethylcyclobutyl)-5-(3-methanesulfonyl-phenyl)-7H-pyrrolo[2,3-d]pyrimidin-4-ylamine] | > 1000 |  | 28000 |  |  |  |  |  | 10000
NCC1CC(n2cc(-c3ccc(N)cc3)c3c(N)ncnc32)C1 (stereo not drawn) [Compound 24] |  | 2300 | 3300 | 630 | 1500 | 630 |  |  | 9200
NCC1CC(n2cc(-c3ccc4c(ccn4Cc4ccccc4)c3)c3c(N)ncnc32)C1 (stereo not drawn) [Compound 56] |  | 1400 |  | 61 | 495 |  | 5000 |  | 4100
CC(=O)NCC1CC(n2cc(-c3cccc(OCc4ccccc4)c3)c3c(N)ncnc32)C1 (stereo not drawn) [N-{3-[4-Amino-5-(3-benzyloxyphenyl)pyrrolo[2,3-d]pyrimidin-7-yl]cyclobutylmethyl}acetamide, reference compound] | 5 (≈ 11.3 µM) |  |  |  |  |  |  |  | 
Nc1ncnc2c1c(-c1cccc(OCc3ccccc3)c1)cn2C1CC(CNC(=O)N2CCCCC2)C1 (stereo not drawn) [Piperidine-1-carboxylic acid {3-[4-amino-5-(3-benzyloxy-phenyl)pyrrolo[2,3-d]pyrimidin-7-yl]cyclo-butylmethyl}amide, reference compound] | < 1 |  |  |  |  |  |  |  | 
